{"source": "paper PMC9898036", "about": "“VIP152 is a selective CDK9 inhibitor with pre-clinical in vitro and in vivo efficacy in chronic lymphocytic leukemia” (Leukemia, 2022)", "type_in_all_cases": "binding", "key": {"[1]": {"molecular_target": "TYK2(JH1domain-catalytic) (Homo sapiens, UniProt P29597)", "assay": "KINOMEscan: TYK2(JH1domain-catalytic)", "settings": "100 nM, read-out: Percent Control"}, "IGF1R": {"molecular_target": "IGF1R (Homo sapiens, UniProt P08069)", "sequence (P08069 31-1367)": "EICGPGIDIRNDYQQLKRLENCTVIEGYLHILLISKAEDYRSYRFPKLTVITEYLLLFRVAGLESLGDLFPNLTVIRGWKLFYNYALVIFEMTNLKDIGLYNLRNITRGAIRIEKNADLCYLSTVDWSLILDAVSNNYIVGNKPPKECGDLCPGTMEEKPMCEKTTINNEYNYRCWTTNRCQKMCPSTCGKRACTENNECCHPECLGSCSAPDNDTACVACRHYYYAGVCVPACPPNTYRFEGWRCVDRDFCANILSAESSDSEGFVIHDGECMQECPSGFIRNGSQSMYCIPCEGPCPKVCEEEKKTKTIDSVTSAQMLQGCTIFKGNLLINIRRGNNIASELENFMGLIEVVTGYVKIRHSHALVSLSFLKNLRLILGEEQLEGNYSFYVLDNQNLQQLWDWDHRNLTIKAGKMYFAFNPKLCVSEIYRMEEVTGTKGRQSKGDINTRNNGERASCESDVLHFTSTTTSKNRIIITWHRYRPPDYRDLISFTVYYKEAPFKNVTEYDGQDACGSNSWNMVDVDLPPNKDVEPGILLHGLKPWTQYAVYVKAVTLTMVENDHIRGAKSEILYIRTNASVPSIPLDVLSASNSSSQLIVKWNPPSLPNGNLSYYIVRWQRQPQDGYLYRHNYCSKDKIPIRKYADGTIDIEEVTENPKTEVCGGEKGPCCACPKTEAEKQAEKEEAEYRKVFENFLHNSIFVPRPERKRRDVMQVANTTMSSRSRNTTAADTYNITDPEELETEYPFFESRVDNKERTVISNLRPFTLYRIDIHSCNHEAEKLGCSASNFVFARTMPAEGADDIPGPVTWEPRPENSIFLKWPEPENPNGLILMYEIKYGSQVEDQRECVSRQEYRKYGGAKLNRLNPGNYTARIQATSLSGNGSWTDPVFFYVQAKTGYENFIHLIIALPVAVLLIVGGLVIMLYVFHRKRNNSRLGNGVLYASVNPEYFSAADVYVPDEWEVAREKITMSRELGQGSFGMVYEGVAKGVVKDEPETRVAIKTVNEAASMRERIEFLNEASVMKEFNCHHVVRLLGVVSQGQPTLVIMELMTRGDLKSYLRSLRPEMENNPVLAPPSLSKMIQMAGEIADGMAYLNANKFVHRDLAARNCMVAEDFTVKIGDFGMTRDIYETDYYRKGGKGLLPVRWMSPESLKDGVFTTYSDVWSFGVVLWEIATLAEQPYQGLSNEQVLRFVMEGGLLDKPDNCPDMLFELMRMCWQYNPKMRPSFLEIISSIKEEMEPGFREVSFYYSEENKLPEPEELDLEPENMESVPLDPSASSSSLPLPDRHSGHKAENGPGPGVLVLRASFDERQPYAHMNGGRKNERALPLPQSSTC", "assay": "KINOMEscan: IGF1R", "settings": "1000 nM, read-out: Percent Control"}, "[2]": {"molecular_target": "RSK3(Kin.Dom.1-N-terminal) (Homo sapiens, UniProt Q15349)", "assay": "KINOMEscan: RSK3(Kin.Dom.1-N-terminal)", "settings": "100 nM, read-out: Percent Control"}, "MEK5": {"molecular_target": "MEK5 (Homo sapiens, UniProt Q13163)", "assay": "KINOMEscan: MEK5", "settings": "1000 nM, read-out: Percent Control"}, "KIT(D816V)": {"molecular_target": "KIT(D816V) (Homo sapiens, UniProt P10721, D816V)", "assay": "KINOMEscan: KIT(D816V)", "settings": "1000 nM, read-out: Percent Control"}, "[3]": {"molecular_target": "Transporter, Norepinephrine (NET) (Homo sapiens, UniProt P23975)", "sequence (P23975 whole entry)": "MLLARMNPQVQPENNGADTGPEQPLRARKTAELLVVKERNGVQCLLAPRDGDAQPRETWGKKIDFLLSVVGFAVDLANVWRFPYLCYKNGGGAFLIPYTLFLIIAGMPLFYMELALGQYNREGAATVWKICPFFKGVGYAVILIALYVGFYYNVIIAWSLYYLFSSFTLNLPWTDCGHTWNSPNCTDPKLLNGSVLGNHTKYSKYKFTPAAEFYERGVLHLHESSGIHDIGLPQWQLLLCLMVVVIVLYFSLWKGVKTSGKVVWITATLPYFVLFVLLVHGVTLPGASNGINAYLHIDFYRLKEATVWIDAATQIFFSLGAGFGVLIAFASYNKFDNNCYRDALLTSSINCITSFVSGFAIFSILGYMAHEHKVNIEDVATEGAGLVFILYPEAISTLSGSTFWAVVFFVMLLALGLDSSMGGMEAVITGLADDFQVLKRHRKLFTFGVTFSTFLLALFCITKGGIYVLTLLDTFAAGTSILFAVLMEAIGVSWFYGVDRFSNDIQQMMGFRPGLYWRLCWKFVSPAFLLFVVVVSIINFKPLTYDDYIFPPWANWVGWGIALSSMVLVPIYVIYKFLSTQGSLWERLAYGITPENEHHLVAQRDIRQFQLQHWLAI", "assay": "Eurofins Diversity Panel", "settings": "hum, Conc. 10 μM"}, "MKNK2": {"molecular_target": "MKNK2 (Homo sapiens, UniProt Q9HBH9)", "sequence (Q9HBH9 whole entry)": "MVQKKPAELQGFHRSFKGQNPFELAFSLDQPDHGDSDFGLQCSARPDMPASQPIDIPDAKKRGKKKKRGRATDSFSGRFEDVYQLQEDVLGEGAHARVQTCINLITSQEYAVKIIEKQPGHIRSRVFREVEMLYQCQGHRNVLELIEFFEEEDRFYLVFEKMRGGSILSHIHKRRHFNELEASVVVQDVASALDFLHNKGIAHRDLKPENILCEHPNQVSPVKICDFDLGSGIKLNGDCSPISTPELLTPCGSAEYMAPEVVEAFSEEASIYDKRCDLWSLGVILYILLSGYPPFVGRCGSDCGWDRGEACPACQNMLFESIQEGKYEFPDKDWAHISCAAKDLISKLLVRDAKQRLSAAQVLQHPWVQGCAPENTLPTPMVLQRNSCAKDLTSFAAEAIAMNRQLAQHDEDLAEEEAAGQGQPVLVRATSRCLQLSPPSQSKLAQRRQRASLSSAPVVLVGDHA", "assay": "KINOMEscan: MKNK2", "settings": "1000 nM, read-out: Percent Control"}, "RIOK3": {"molecular_target": "RIOK3 (Homo sapiens, UniProt O14730)", "assay": "KINOMEscan: RIOK3", "settings": "100 nM, read-out: Percent Control"}, "ACVR2A": {"molecular_target": "ACVR2A (Homo sapiens, UniProt P27037)", "assay": "KINOMEscan: ACVR2A", "settings": "1000 nM, read-out: Percent Control"}, "DYRK1A": {"molecular_target": "DYRK1A (Homo sapiens, UniProt Q13627)", "assay": "KINOMEscan: DYRK1A", "settings": "1000 nM, read-out: Percent Control"}, "CDC2L1": {"molecular_target": "CDC2L1 (Homo sapiens, UniProt P21127)", "assay": "KINOMEscan: CDC2L1", "settings": "1000 nM, read-out: Percent Control"}, "[4]": {"molecular_target": "RPS6KA5(Kin.Dom.2-C-terminal) (Homo sapiens, UniProt O75582)", "sequence (O75582 388-802 limits assumed)": "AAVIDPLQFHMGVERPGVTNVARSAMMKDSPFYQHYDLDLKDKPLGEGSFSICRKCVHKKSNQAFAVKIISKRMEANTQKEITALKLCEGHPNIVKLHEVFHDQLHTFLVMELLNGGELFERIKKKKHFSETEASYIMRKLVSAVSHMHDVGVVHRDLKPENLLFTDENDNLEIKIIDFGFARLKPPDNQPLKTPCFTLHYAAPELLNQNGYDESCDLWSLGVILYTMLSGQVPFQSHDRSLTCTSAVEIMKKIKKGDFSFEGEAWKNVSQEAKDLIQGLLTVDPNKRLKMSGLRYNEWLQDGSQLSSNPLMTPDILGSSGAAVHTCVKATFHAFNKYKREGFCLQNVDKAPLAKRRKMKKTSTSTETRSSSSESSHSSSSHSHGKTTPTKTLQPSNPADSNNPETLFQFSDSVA", "assay": "KINOMEscan: RPS6KA5(Kin.Dom.2-C-terminal)", "settings": "100 nM, read-out: Percent Control"}, "[5]": {"molecular_target": "RSK1(Kin.Dom.1-N-terminal) (Homo sapiens, UniProt Q15418)", "sequence (Q15418 1-391 limits assumed)": "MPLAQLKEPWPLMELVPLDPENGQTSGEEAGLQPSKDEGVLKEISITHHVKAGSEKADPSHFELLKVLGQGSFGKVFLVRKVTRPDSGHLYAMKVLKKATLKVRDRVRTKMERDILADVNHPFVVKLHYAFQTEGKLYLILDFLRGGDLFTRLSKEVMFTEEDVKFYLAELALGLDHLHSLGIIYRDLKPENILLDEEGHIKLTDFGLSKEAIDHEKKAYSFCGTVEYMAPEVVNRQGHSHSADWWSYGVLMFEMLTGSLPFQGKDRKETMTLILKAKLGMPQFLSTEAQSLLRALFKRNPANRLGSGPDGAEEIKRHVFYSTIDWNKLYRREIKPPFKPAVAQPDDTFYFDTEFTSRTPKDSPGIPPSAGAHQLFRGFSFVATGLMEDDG", "assay": "KINOMEscan: RSK1(Kin.Dom.1-N-terminal)", "settings": "100 nM, read-out: Percent Control"}, "ACVR1B": {"molecular_target": "ACVR1B (Homo sapiens, UniProt P36896)", "sequence (P36896 24-505)": "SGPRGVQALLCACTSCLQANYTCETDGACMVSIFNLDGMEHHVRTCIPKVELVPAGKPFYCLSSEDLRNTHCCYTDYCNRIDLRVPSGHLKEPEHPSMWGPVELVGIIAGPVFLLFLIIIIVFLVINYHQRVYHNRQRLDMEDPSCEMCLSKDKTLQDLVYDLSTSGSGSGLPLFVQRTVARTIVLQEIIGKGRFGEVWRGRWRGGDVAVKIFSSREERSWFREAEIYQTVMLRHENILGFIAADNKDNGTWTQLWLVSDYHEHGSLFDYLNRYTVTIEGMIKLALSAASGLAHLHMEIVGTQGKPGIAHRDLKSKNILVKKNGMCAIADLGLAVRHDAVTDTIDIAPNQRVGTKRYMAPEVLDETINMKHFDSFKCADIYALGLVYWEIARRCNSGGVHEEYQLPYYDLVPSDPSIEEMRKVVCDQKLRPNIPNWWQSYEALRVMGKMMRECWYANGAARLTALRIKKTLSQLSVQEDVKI", "assay": "KINOMEscan: ACVR1B", "settings": "1000 nM, read-out: Percent Control"}, "ACVR1": {"molecular_target": "ACVR1 (Homo sapiens, UniProt Q04771)", "assay": "KINOMEscan: ACVR1", "settings": "1000 nM, read-out: Percent Control"}, "AKT2": {"molecular_target": "AKT2 (Homo sapiens, UniProt P31751)", "sequence (P31751 whole entry)": "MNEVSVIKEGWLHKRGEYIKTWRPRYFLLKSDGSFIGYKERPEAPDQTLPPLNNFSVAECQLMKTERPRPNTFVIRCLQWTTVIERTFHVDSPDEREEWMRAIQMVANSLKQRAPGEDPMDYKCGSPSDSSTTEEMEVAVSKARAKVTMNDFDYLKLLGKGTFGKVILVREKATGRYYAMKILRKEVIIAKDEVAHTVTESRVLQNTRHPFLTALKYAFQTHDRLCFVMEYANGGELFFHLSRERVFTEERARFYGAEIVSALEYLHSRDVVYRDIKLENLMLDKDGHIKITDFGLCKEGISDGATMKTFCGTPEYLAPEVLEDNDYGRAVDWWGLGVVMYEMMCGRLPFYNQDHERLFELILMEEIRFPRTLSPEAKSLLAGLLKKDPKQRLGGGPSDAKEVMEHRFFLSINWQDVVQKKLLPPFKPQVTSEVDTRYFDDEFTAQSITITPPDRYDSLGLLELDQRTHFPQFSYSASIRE", "assay": "KINOMEscan: AKT2", "settings": "1000 nM, read-out: Percent Control"}, "ERK4": {"molecular_target": "ERK4 (Homo sapiens, UniProt P31152)", "assay": "KINOMEscan: ERK4", "settings": "1000 nM, read-out: Percent Control"}, "AKT3": {"molecular_target": "AKT3 (Homo sapiens, UniProt Q9Y243)", "sequence (Q9Y243 whole entry)": "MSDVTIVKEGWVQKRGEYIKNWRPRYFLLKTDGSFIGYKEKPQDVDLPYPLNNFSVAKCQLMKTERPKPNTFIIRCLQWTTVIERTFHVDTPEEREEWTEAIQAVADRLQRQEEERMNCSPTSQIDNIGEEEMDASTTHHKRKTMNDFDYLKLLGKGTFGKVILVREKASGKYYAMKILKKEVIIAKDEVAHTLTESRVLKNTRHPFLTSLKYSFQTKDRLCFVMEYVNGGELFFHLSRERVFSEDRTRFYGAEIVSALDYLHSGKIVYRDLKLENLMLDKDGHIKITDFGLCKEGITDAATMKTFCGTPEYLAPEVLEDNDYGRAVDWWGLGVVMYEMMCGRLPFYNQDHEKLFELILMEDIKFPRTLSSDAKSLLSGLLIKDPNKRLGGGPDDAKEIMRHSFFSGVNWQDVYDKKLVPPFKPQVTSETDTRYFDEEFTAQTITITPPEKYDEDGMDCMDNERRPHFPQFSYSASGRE", "assay": "KINOMEscan: AKT3", "settings": "1000 nM, read-out: Percent Control"}, "DAPK3": {"molecular_target": "DAPK3 (Homo sapiens, UniProt O43293)", "assay": "KINOMEscan: DAPK3", "settings": "1000 nM, read-out: Percent Control"}, "ASK1": {"molecular_target": "ASK1 (Homo sapiens, UniProt Q99683)", "assay": "KINOMEscan: ASK1", "settings": "1000 nM, read-out: Percent Control"}, "Histamine H1": {"molecular_target": "Histamine H1 (Homo sapiens, UniProt P35367)", "assay": "Eurofins Diversity Panel", "settings": "hum, Conc. 10 μM"}, "BRAF": {"molecular_target": "BRAF (Homo sapiens, UniProt P15056)", "assay": "KINOMEscan: BRAF", "settings": "1000 nM, read-out: Percent Control"}, "EGFR(T790M)": {"molecular_target": "EGFR(T790M) (Homo sapiens, UniProt P00533, T790M)", "assay": "KINOMEscan: EGFR(T790M)", "settings": "1000 nM, read-out: Percent Control"}, "FLT3-autoinhibited": {"molecular_target": "FLT3-autoinhibited (Homo sapiens, UniProt P36888)", "assay": "KINOMEscan: FLT3-autoinhibited", "settings": "1000 nM, read-out: Percent Control"}, "[6]": {"molecular_target": "Platelet Activating Factor (PAF) (Homo sapiens, UniProt P25105)", "sequence (P25105 whole entry)": "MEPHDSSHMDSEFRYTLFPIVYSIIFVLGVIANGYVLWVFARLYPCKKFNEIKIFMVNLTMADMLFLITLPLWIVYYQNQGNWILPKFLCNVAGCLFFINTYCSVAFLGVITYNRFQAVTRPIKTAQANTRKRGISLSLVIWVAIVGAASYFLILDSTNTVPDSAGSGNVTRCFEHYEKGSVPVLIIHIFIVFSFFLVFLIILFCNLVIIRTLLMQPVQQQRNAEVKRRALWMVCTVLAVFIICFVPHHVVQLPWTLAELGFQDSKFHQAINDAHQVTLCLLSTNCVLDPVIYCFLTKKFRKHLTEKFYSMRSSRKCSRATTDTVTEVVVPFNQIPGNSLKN", "assay": "Eurofins Diversity Panel", "settings": "hum, Conc. 10 μM"}}, "data": [{"molecule": "COc1cc(F)ccc1-c1cc(Nc2cc(CS(C)(=N)=O)ccn2)ncc1F", "note": "(stereo not shown) [VIP152]", "values": [{"measurement": "remaining binding at 0.1 µM", "setting": "[1]", "result": 100, "unit": "%"}, {"measurement": "remaining binding at 1 µM", "setting": "IGF1R", "result": 100, "unit": "%"}, {"measurement": "remaining binding at 0.1 µM", "setting": "[2]", "result": 100, "unit": "%"}, {"measurement": "remaining binding at 1 µM", "setting": "MEK5", "result": 52, "unit": "%"}, {"measurement": "remaining binding at 1 µM", "setting": "KIT(D816V)", "result": 88, "unit": "%"}, {"measurement": "inhibition at 10 µM", "setting": "[3]", "result": 37, "unit": "%"}, {"measurement": "remaining binding at 1 µM", "setting": "MKNK2", "result": 96, "unit": "%"}, {"measurement": "remaining binding at 0.1 µM", "setting": "RIOK3", "result": 100, "unit": "%"}, {"measurement": "remaining binding at 1 µM", "setting": "ACVR2A", "result": 75, "unit": "%"}, {"measurement": "remaining binding at 1 µM", "setting": "DYRK1A", "result": 12, "unit": "%"}, {"measurement": "remaining binding at 1 µM", "setting": "CDC2L1", "result": 96, "unit": "%"}, {"measurement": "remaining binding at 0.1 µM", "setting": "[4]", "result": 100, "unit": "%"}, {"measurement": "remaining binding at 0.1 µM", "setting": "[5]", "result": 100, "unit": "%"}, {"measurement": "remaining binding at 1 µM", "setting": "ACVR1B", "result": 96, "unit": "%"}, {"measurement": "remaining binding at 1 µM", "setting": "ACVR1", "result": 64, "unit": "%"}, {"measurement": "remaining binding at 1 µM", "setting": "AKT2", "result": 100, "unit": "%"}, {"measurement": "remaining binding at 1 µM", "setting": "ERK4", "result": 99, "unit": "%"}, {"measurement": "remaining binding at 1 µM", "setting": "AKT3", "result": 98, "unit": "%"}, {"measurement": "remaining binding at 1 µM", "setting": "DAPK3", "result": 91, "unit": "%"}, {"measurement": "remaining binding at 1 µM", "setting": "ASK1", "result": 97, "unit": "%"}, {"measurement": "inhibition at 10 µM", "setting": "Histamine H1", "result": 1, "unit": "%"}, {"measurement": "remaining binding at 1 µM", "setting": "BRAF", "result": 55, "unit": "%"}, {"measurement": "remaining binding at 1 µM", "setting": "EGFR(T790M)", "result": 94, "unit": "%"}, {"measurement": "remaining binding at 1 µM", "setting": "FLT3-autoinhibited", "result": 76, "unit": "%"}, {"measurement": "inhibition at 10 µM", "setting": "[6]", "result": 6, "unit": "%"}]}]}
